{"source": "patent US20060194259A1", "about": "“Method for isolating an allosteric effector of a receptor” (priority 2002, published 2006)", "key": {"receptor EGFP-NK2R [1]": {"biological_target": "T1, receptor EGFP-NK2R (UniProt P16610)", "T1 sequence (P16610 1-390)": "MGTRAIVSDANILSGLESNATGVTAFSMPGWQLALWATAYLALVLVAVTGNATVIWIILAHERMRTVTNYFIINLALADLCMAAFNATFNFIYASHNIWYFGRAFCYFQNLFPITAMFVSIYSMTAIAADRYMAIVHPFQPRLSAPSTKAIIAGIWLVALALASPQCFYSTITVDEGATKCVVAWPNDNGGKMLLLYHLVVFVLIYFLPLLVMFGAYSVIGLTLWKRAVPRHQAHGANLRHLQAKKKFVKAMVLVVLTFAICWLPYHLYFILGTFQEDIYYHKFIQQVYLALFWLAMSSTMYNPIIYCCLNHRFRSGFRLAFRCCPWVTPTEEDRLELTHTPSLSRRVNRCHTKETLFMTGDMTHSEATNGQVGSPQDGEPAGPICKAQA", "assay": "Association kinetics of NKA-Bo with EGFP-NK2R by fluorescence energy transfer (rapid mixing)", "format": "binding", "design": "% al (max): maximum value observed for the increase in amplitude of the rapid dissociation rate; ns = n; other: 20 nM of NK; % al (at 10 μM); other: compou; fused on or other part: EGFP fused to the receptor as FRET donor", "description": "Association (FIG. 4A): HEK 293 cells expressing the receptor EGFP-NK2R (NK2R marked with GFP) are put into suspension at a concentration of 2,000,000 cells/ml in Hepes physiological buffer (in mM: 137.5 NaCl; 1.25 MgCl2; 1.25 CaCl2; 6 KCl; 5.6 glucose; 10 Hepes; 0.4 NaH2PO4; 1% BSA (w/v); pH 7.4) and arranged in one of the reservoirs of the rapid mixing device. […] The observation chamber is arranged in a SPEX fluorolog 3 spectrofluorimeter. The temperature of the reservoir of the syringes as well as of the mixing and observation chamber is fixed at 21° C. The excitation wavelength of the observation chamber is fixed at 470 nm, and the fluorescence emission wavelength is fixed at 510 nm. The sampling frequency of the experimental points is fixed at 50 Hz (1 point every 20 msec). The content of the reservoirs is driven towards the mixing and observation chamber using a pneumatic device allowing a flow rate of 4 ml/sec and the evolution of the mixture is recorded continuously from the moment of stopping of the thrust of the pistons of the reservoirs. The reaction of association of NKA-Bo with the receptor EGFP-NK2R is detected in the form of a reduction in the intensity of fluorescence of the GFP carried by the receptor NK2R. The experimental trace is adjusted by a multiexponential curve of type y=λ1 exp (−k1app×T)+λ2 exp (−k2app×T)+“straight”, where λ1 and λ2 are the amplitudes of the rapid and slow relaxations, k1app and k2app are the apparent rate constants of rapid and slow association, T is time and “straight” is a mathematical correction of the signal drift. The values of λ1, λ2, k1app, k2app for a final concentration of NKA-BO of 100 nM are respectively 67%; 32%; 0.6 sec^−1 and 0.03 sec^−1. The correlation coefficient of the adjustment of the experimental curve is R=0.989.\nThe rapid binding of NKA-Bo, recorded at a concentration of 20 nM using the rapid mixing equipment, is broken down into a sum of two exponentials the rates (kapp) of which differ by a factor of 10. The rapid binding of NKA-Bo (kapp=0.095 sec^−1) represents 44% of the total binding signal, in the absence of A11 (50 μM), whereas it represents 52% of the total signal in the presence of A11. The slow binding is carried out in both cases with an apparent rate (kapp) equal to 0.0095 sec^−1, and an amplitude equal to […] in the absence of A11, and 48% in the presence of A11."}, "[2]": {"test_system": "cells not expressing the EGFP-NK2R receptor", "assay": "Calcium response on cells not expressing the receptor", "format": "cell-based", "design": "key: ns: not significant; ?: uniterpretable", "conditions": "Table 1"}, "receptor EGFP-NK2R [3]": {"biological_target": "T1, receptor EGFP-NK2R", "assay": "Reversion of the binding of NKA-Bo to EGFP-NK2R by fluorescence energy transfer", "design": "% al (max): maximum value observed for the increase in amplitude of the rapid dissociation rate; ns = n; other: 20 nM of NK; % al (at 10 μM); other: compou; fused on or other part: EGFP fused to the receptor as FRET donor", "conditions": "20 nM NKA-Bo; increasing concentration of compound; 100% = NKA 10 μM", "description": "(§1) The amplitude of each relaxation is then given by the adjustment of the experimental traces."}, "receptor EGFP-NK2R [4]": {"biological_target": "T1, receptor EGFP-NK2R", "assay": "Dissociation kinetics of NKA-Bo bound to EGFP-NK2R by fluorescence energy transfer", "format": "binding", "design": "% al (max): maximum value observed for the increase in amplitude of the rapid dissociation rate; ns = n; other: 20 nM of NK; % al (at 10 μM); other: compou; fused on or other part: EGFP fused to the receptor as FRET donor", "experimental": "Dissociation (FIG. 4B): HEK 293 cells expressing the receptor EGFP-NK2R are put into suspension at a concentration of 1,000,000 cells/ml in Hepes physiological buffer (in mM: 137.5 NaCl; 1.25 MgCl2; 1.25 CaCl2; 6 KCl; 5.6 glucose; 10 Hepes; 0.4 NaH2PO4; 1% BSA (w/v); pH 7.4) and arranged in a 1 ml cuvette equipped with a magnetic stirrer on the cuvette holder of a SPEX fluorolog 3 spectrofluorimeter.\nas §1"}, "receptor EGFP-NK2R [5]": {"biological_target": "T1, receptor EGFP-NK2R", "assay": "Dissociation of NKA4-10 TR7 from EGFP-NK2R by fluorescence energy transfer", "format": "binding", "design": "% al (max): maximum value observed for the increase in amplitude of the rapid dissociation rate; ns = n; other: 20 nM of NK; % al (at 10 μM); other: compou; fused on or other part: EGFP fused to the receptor as FRET donor", "conditions": "10° C.; without 805", "experimental": "(§2) The x-axis represents time in seconds and the y-axis represents fluorescence.\n(§3) In the presence of 10 μM of 805, an acceleration of the dissociation is observed characterized by a modification of the amplitudes of the rapid (88%) and slow (12%) dissociation stages."}, "receptor EGFP-NK2R [6]": {"biological_target": "T2, receptor EGFP-NK2R (Homo sapiens, UniProt P21452)", "T2 sequence (P21452 1-398)": "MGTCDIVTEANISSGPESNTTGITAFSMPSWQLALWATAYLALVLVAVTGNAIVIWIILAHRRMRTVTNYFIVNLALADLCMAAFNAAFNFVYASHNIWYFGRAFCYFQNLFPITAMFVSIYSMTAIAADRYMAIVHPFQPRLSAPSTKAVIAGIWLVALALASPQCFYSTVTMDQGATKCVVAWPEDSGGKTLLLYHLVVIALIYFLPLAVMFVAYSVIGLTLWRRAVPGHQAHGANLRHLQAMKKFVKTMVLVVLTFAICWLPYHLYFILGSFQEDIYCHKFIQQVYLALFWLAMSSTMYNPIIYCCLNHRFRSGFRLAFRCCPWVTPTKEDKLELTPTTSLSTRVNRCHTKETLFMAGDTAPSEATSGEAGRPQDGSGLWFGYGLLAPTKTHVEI", "assay": "Calcium response caused by NKA 4-10 TR7 in HEK 293 cells expressing EGFP-NK2R (indo-1)", "format": "cell-based", "conditions": "read-out: 50%-effective dose of NKA 4-10 TR7 for the calcium response; without 805", "experimental": "The cells are put into suspension at a rate of 500,000 cells/ml in Hepes buffer and arranged in a spectrofluorimeter cuvette. The excitation wavelength is fixed at 355 nm and the emission is recorded at […]."}, "receptor EGFP-NK2R [7]": {"biological_target": "T2, receptor EGFP-NK2R", "assay": "Dissociation of NKA4-10 TR7 from EGFP-NK2R by fluorescence energy transfer", "format": "binding", "conditions": "10° C.; without 805", "experimental": "as §2, §3"}, "[8]": {"conditions": "in the presence of 50 μM compound, dissociation by non-fluorescent NKA"}, "[9]": {"conditions": "20 nM NKA-Bo, 10 μM SR 48968, no effector"}}, "data": [{"compound": "N#CCN(Cc1ccc(N)cc1)Cc1ccc2ccccc2c1", "note": "[A11, [(4-Amino-benzyl)-naphthalen-2-ylmethyl-amino]-acetonitrile]", "values": [{"measurement": "rapid binding of NKA-Bo, % of the total binding signal", "setting": "receptor EGFP-NK2R [1]; 20 nM NKA-Bo, in the presence of A11 (50 μM), 44% in its absence", "value": 52, "unit": "%"}, {"measurement": "slow binding of NKA-Bo, amplitude", "setting": "receptor EGFP-NK2R [1]; 20 nM NKA-Bo, in the presence of A11 (50 μM), 66% in its absence", "value": 48, "unit": "%"}, {"measurement": "Ca Rep.: ability to evoke a calcium response on cells not expressing the EGFP-NK2R receptor", "setting": "[2]", "value": "ns"}, {"measurement": "fraction of the NKA-Bo bound to its site displaced by the compound", "setting": "receptor EGFP-NK2R [3]", "value": 29, "unit": "%"}, {"measurement": "% al (max): maximum value observed for the increase in amplitude of the rapid dissociation rate", "setting": "receptor EGFP-NK2R [4]; Table 1, ns = not significant", "value": "≧90%"}, {"measurement": "fraction of receptors in the low-affinity state", "setting": "receptor EGFP-NK2R [4]; at 100 μM of effector, approximately 25% in the absence of effector", "value": "~100", "unit": "%"}, {"measurement": "effect on the dissociation kinetics of NKA-Bo", "setting": "receptor EGFP-NK2R [4]; dissociation by non-fluorescent NKA in the presence of compound", "value": "accelerating the dissociation rate"}, {"measurement": "amplitude of the rapid dissociation of NKA-Bo (% of total signal)", "setting": "receptor EGFP-NK2R [4]; [8]", "value": 78, "unit": "%"}, {"measurement": "amplitude of the slow dissociation of NKA-Bo (% of total signal)", "setting": "receptor EGFP-NK2R [4]; [8]", "value": 22, "unit": "%"}, {"measurement": "EC50", "setting": "receptor EGFP-NK2R [4]; read-out: EC50 (μM): concentration of compound causing a 50% increase (relative to the maximum value) in the percentage of the amplitude of the rapid dissociation rate, Table 1, dissociation of NKA-Bo from EGFP-NK2R, ns = not significant", "value": "38 to 44", "unit": "µM"}]}, {"compound": "CSCC[C@H](NC(=O)[C@H](CC(C)C)NC(=O)CNC(=O)[C@@H](NC(=O)[C@H](Cc1ccccc1)NC(=O)[C@H](CO)NC(=O)[C@H](CC(=O)O)NC(=O)[C@@H](NC(=O)[C@H](CCCCN)NC(=O)[C@H](Cc1c[nH]cn1)NC(=O)CCc1ccc2n1[B-](F)(F)[N+]1=C(c3ccccc3)C=C(c3ccccc3)C1=C2)[C@@H](C)O)C(C)C)C(N)=O", "note": "[NKA-Bo]", "values": [{"measurement": "k1app, apparent rate constant of rapid association", "setting": "receptor EGFP-NK2R [1]; NKA-BO 100 nM final, 21° C.", "value": 0.6, "unit": "s⁻¹"}, {"measurement": "k2app, apparent rate constant of slow association", "setting": "receptor EGFP-NK2R [1]; NKA-BO 100 nM final, 21° C.", "value": 0.03, "unit": "s⁻¹"}, {"measurement": "λ1, amplitude of the rapid association relaxation", "setting": "receptor EGFP-NK2R [1]; NKA-BO 100 nM final, 21° C.", "value": 67, "unit": "%"}, {"measurement": "λ2, amplitude of the slow association relaxation", "setting": "receptor EGFP-NK2R [1]; NKA-BO 100 nM final, 21° C.", "value": 32, "unit": "%"}, {"measurement": "kapp of the rapid binding of NKA-Bo", "setting": "receptor EGFP-NK2R [1]; NKA-Bo 20 nM", "value": 0.095, "unit": "s⁻¹"}, {"measurement": "kapp of the slow binding of NKA-Bo", "setting": "receptor EGFP-NK2R [1]; NKA-Bo 20 nM, with or without A11", "value": 0.0095, "unit": "s⁻¹"}, {"measurement": "λ1, amplitude of rapid dissociation of NKA-Bo", "setting": "receptor EGFP-NK2R [4]; [9]", "value": 40, "unit": "%"}, {"measurement": "λ2, amplitude of slow dissociation of NKA-Bo", "setting": "receptor EGFP-NK2R [4]; [9]", "value": 58, "unit": "%"}]}, {"compound": "NKA4-10 TR7: truncated neurokinin NKA4-10 marked in position 7 by Texas Red", "values": [{"measurement": "amplitude of the slow dissociation of NKA4-10 TR7", "setting": "receptor EGFP-NK2R [5]", "value": 42, "unit": "%"}, {"measurement": "EC50", "setting": "receptor EGFP-NK2R [6]", "value": "~0.02", "unit": "µM"}, {"measurement": "amplitude of the rapid dissociation of NKA4-10 TR7", "setting": "receptor EGFP-NK2R [7]", "value": 58, "unit": "%"}]}]}
